# Test results taken from patent publication US9365576B2, “Pyrrolopyrrolidinone compounds” (Novartis AG, priority 2012, dated 2016).
# Target: human MDM2 protein (amino acids 2-188) (Homo sapiens (Human), UniProt Q00987)
# Assay: TR-FRET assay, p53-MDM2 Assay 2 (modified)
# Type: binding
# Details: TR-FRET; 0.1 nM MDM2, 0.1 nM Europium labeled streptavidin, Tecan genios Pro reader; read-out: IC50 p53-MDM2 Assay 2
# Method: The inhibition of p53-MDM2 and p53-MDM4 interactions is measured by time resolved fluorescence energy transfer (TR-FRET). Fluorescence energy transfer (or Foerster resonance energy transfer) describes an energy transfer between donor and acceptor fluorescent molecules. For this assay, human MDM2 protein (amino acids 2-188) and human MDM4 protein (amino acids 2-185), tagged with a C-terminal biotin moiety, are used in combination with a Europium labeled streptavidin (Perkin Elmer, Inc., Waltham, Mass., USA) serving as the donor fluorophore. The p53 derived, Cy5 labeled peptide Cy5-[…] (p53 aa18-26) is the energy acceptor. Upon excitation of the donor molecule at 340 nm, binding interaction between MDM2 or MDM4 and the p53 peptide induces energy transfer and enhanced response at the acceptor emission wavelength at 665 nm. […] The ratiometric FRET assay readout is calculated from the raw data of the two distinct fluorescence signals measured in time resolved mode (fluorescence 665 nm/fluorescence 620 nm×1000).
# After addition of 1.25 nM MDM2-biotinylated or 2.5 nM MDM4-biotinylated (internal preparations), and 0.625 nM Europium labeled streptavidin (Perkin Elmer), the solution is pre-incubated for 15 minutes at room temperature, then 10 nM Cy5-p53 peptide (internal preparation) is added before an incubation at room temperature for 15 minutes prior to reading the plate. For measurement of samples, a Victor II microplate reader (Perkin Elmer) is used with the following settings: Excitation 340 nm, Emission Donor 620 nm and Emission Acceptor 665 nm. IC50 values are calculated by curve fitting using XLfit. If not specified, reagents are purchased from Sigma-Aldrich Chemie GmBH, Buchs, Switzerland.
# human MDM2 protein (amino acids 2-188), sequence (Q00987 2-188): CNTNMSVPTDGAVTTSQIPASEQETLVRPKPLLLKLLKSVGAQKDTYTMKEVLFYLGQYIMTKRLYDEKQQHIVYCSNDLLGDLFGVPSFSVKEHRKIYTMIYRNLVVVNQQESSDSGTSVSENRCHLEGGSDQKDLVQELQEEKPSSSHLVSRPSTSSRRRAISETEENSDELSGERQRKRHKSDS
row,SMILES,IC50
1,"COc1ccccc1-c1c(C#N)c2c(n1C(C)C)C(c1ccc(Cl)cc1)N(c1cc(Cl)ccc1C)C2=O (centres unmarked) [Example 59, 5-(5-Chloro-2-methyl-phenyl)-6-(4-chloro-phenyl)-1-isopropyl-2-(2-methoxy-phenyl)-4-oxo-1,4,5,6-tetrahydro-pyrrolo[3,4-b]pyrrole-3-carbonitrile]",0.163 nM
2,"COc1ccc(CC(=O)O)cc1-c1cc2c(n1C(C)C)C(c1ccc(Cl)cc1)N(c1cc(Cl)ccc1C)C2=O (centres unmarked) [Example 60, {3-[5-(5-Chloro-2-methyl-phenyl)-6-(4-chloro-phenyl)-1-isopropyl-4-oxo-1,4,5,6-tetrahydro-pyrrolo[3,4-b]pyrrol-2-yl]-4-methoxy-phenyl}-acetic acid]",0.155 nM
3,"COc1ccc(C(N)=O)cc1-c1cc2c(n1C(C)C)C(c1ccc(Cl)cc1)N(c1cc(Cl)ccc1C)C2=O (centres unmarked) [Example 61, 3-[5-(5-Chloro-2-methyl-phenyl)-6-(4-chloro-phenyl)-1-isopropyl-4-oxo-1,4,5,6-tetrahydro-pyrrolo[3,4-b]pyrrol-2-yl]-4-methoxy-benzamide]",0.104 nM
4,"CNS(=O)(=O)c1ccc(OC)c(-c2cc3c(n2C(C)C)C(c2ccc(Cl)cc2)N(c2cc(Cl)ccc2C)C3=O)c1 (centres unmarked) [Example 62, 3-[5-(5-Chloro-2-methyl-phenyl)-6-(4-chloro-phenyl)-1-isopropyl-4-oxo-1,4,5,6-tetrahydro-pyrrolo[3,4-b]pyrrol-2-yl]-4-methoxy-N-methyl-benzenesulfonamide]",0.169 nM
5,"COc1ccccc1-c1cc2c(n1C(C)C)C(c1ccc(Cl)cc1)N([C@H]1CC[C@H](O)CC1)C2=O (stereo partly drawn) [Example 63, 6-(4-Chloro-phenyl)-5-(trans-4-hydroxy-cyclohexyl)-1-isopropyl-2-(2-methoxy-phenyl)-5,6-dihydro-1H-pyrrolo[3,4-b]pyrrol-4-one]",8.13 nM
6,"CNC(=O)c1ccc(OC)c(-c2cc3c(n2C(C)C)C(c2ccc(Cl)cc2)N([C@H]2CC[C@H](O)CC2)C3=O)c1 (stereo partly drawn) [Example 64, 3-[6-(4-Chloro-phenyl)-5-(trans-4-hydroxy-cyclohexyl)-1-isopropyl-4-oxo-1,4,5,6-tetrahydro-pyrrolo[3,4-b]pyrrol-2-yl]-4-methoxy-N-methyl-benzamide]",1 nM
7,"COc1ncc(-c2cc3c(n2C(C)C)C(c2ccc(Cl)cc2)N([C@H]2CC[C@H](O)CC2)C3=O)c(OC)n1 (stereo partly drawn) [Example 66, 6-(4-Chloro-phenyl)-2-(2,4-dimethoxy-pyrimidin-5-yl)-5-(trans-4-hydroxy-cyclohexyl)-1-isopropyl-5,6-dihydro-1H-pyrrolo[3,4-b]pyrrol-4-one]",1.39 nM
8,"COc1ccc(C#N)cc1-c1cc2c(n1C(C)C)C(c1ccc(Cl)cc1)N([C@H]1CC[C@H](O)CC1)C2=O (stereo partly drawn) [Example 67, 3-[6-(4-Chloro-phenyl)-5-(trans-4-hydroxy-cyclohexyl)-1-isopropyl-4-oxo-1,4,5,6-tetrahydro-pyrrolo[3,4-b]pyrrol-2-yl]-4-methoxy-benzonitrile]",2.49 nM
9,"COc1nc(N(C)C)ncc1-c1cc2c(n1C(C)C)C(c1ccc(Cl)cc1)N([C@H]1CC[C@H](O)CC1)C2=O (stereo partly drawn) [Example 69, 6-(4-Chloro-phenyl)-2-(2-dimethylamino-4-methoxy-pyrimidin-5-yl)-5-(trans-4-hydroxy-cyclohexyl)-1-isopropyl-5,6-dihydro-1H-pyrrolo[3,4-b]pyrrol-4-one]",0.777 nM
10,"COc1ncc(-c2cc3c(n2C(C)C)C(c2ccc(Cl)cc2)N(c2cc(Cl)cn(C)c2=O)C3=O)c(OC)n1 (centres unmarked) [Example 70, 5-(5-Chloro-1-methyl-2-oxo-1,2-dihydro-pyridin-3-yl)-6-(4-chloro-phenyl)-2-(2,4-dimethoxy-pyrimidin-5-yl)-1-isopropyl-5,6-dihydro-1H-pyrrolo[3,4-b]pyrrol-4-one]",0.235 nM
11,"COc1nc(N)ncc1-c1cc2c(n1C(C)C)C(c1ccc(Cl)cc1)N(c1cc(Cl)cn(C)c1=O)C2=O (centres unmarked) [Example 71, 2-(2-Amino-4-methoxy-pyrimidin-5-yl)-5-(5-chloro-1-methyl-2-oxo-1,2-dihydro-pyridin-3-yl)-6-(4-chloro-phenyl)-1-isopropyl-5,6-dihydro-1H-pyrrolo[3,4-b]pyrrol-4-one]",0.635 nM
12,"CNc1ncc(-c2cc3c(n2C(C)C)C(c2ccc(Cl)cc2)N(c2cc(Cl)cn(C)c2=O)C3=O)c(OC)n1 (centres unmarked) [Example 72, 5-(5-Chloro-1-methyl-2-oxo-1,2-dihydro-pyridin-3-yl)-6-(4-chloro-phenyl)-1-isopropyl-2-(4-methoxy-2-methylamino-pyrimidin-5-yl)-5,6-dihydro-1H-pyrrolo[3,4-b]pyrrol-4-one]",0.295 nM
13,"COc1nc(N(C)C)ncc1-c1cc2c(n1C(C)C)C(c1ccc(Cl)cc1)N(c1cc(Cl)cn(C)c1=O)C2=O (centres unmarked) [Example 73, 5-(5-Chloro-1-methyl-2-oxo-1,2-dihydro-pyridin-3-yl)-6-(4-chloro-phenyl)-2-(2-dimethylamino-4-methoxy-pyrimidin-5-yl)-1-isopropyl-5,6-dihydro-1H-pyrrolo[3,4-b]pyrrol-4-one]",0.161 nM
14,"COc1ccccc1-c1cc2c(n1C(C)C)C(c1ccc(Cl)cc1)N(C1CCOCC1)C2=O (centres unmarked) [Example 74, 6-(4-Chloro-phenyl)-1-isopropyl-2-(2-methoxy-phenyl)-5-(tetrahydro-pyran-4-yl)-5,6-dihydro-1H-pyrrolo[3,4-b]pyrrol-4-one]",2.57 nM
15,"CNC(=O)c1ccc(OC)c(-c2cc3c(n2C(C)C)C(c2ccc(Cl)cc2)N(C2CCOCC2)C3=O)c1 (centres unmarked) [Example 75, 3-[6-(4-Chloro-phenyl)-1-isopropyl-4-oxo-5-(tetrahydro-pyran-4-yl)-1,4,5,6-tetrahydro-pyrrolo[3,4-b]pyrrol-2-yl]-4-methoxy-N-methyl-benzamide]",1.09 nM
16,"COc1ncc(-c2cc3c(n2C(C)C)C(c2ccc(Cl)cc2)N(C2CCOCC2)C3=O)c(OC)n1 (centres unmarked) [Example 76, 6-(4-Chloro-phenyl)-2-(2,4-dimethoxy-pyrimidin-5-yl)-1-isopropyl-5-(tetrahydro-pyran-4-yl)-5,6-dihydro-1H-pyrrolo[3,4-b]pyrrol-4-one]",1.64 nM
17,"COc1ccc(C#N)cc1-c1cc2c(n1C(C)C)C(c1ccc(Cl)cc1)N(C1CCOCC1)C2=O (centres unmarked) [Example 77, 3-[6-(4-Chloro-phenyl)-1-isopropyl-4-oxo-5-(tetrahydro-pyran-4-yl)-1,4,5,6-tetrahydro-pyrrolo[3,4-b]pyrrol-2-yl]-4-methoxy-benzonitrile]",1.51 nM
18,"COc1nc(N(C)C)ncc1-c1cc2c(n1C(C)C)C(c1ccc(Cl)cc1)N(C1CCOCC1)C2=O (centres unmarked) [Example 79, 6-(4-Chloro-phenyl)-2-(2-dimethylamino-4-methoxy-pyrimidin-5-yl)-1-isopropyl-5-(tetrahydro-pyran-4-yl)-5,6-dihydro-1H-pyrrolo[3,4-b]pyrrol-4-one]",0.423 nM
19,"COc1ccc(CC(N)=O)cc1-c1cc2c(n1C(C)C)C(c1ccc(Cl)cc1)N(c1cc(Cl)ccc1C)C2=O (centres unmarked) [Example 80, 2-{3-[5-(5-Chloro-2-methyl-phenyl)-6-(4-chloro-phenyl)-1-isopropyl-4-oxo-1,4,5,6-tetrahydro-pyrrolo[3,4-b]pyrrol-2-yl]-4-methoxy-phenyl}-acetamide]",0.115 nM
20,"CNC(=O)Cc1ccc(OC)c(-c2cc3c(n2C(C)C)C(c2ccc(Cl)cc2)N(c2cc(Cl)ccc2C)C3=O)c1 (centres unmarked) [Example 81, 2-{3-[5-(5-Chloro-2-methyl-phenyl)-6-(4-chloro-phenyl)-1-isopropyl-4-oxo-1,4,5,6-tetrahydro-pyrrolo[3,4-b]pyrrol-2-yl]-4-methoxy-phenyl}-N-methyl-acetamide]",0.148 nM
